What is called pEC50 is the EC50 on a negative log10 scale, so that one unit is a factor of ten.

These results are taken from patent US10259810B2, “N-sulfonylated pyrazolo[3,4-b]pyridin-6-carboxamides and method of use” (AbbVie S.à.r.l., priority 2015, dated 2019).

Molecules are shown by their SMILES. pEC50: −log10 of the molar value.

Experiment [1] addresses T1, ΔF508-CFTR (Homo sapiens, UniProt P13569, DEL508-508).
T1 construct: host or cells: CFBE41o-, doxycycline-inducible
Description: CFTR cell surface levels using HRP-tagged ΔF508-CFTR expressing CFBE cells, in the presence of a co-corrector. The experiment is classed as cell-based. Conditions: HRP-tagged ΔF508-CFTR CFBE cells, in the presence of 3 μM co-corrector; for pEC50: read-out: EC50. A digest of the protocol:
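Chemiluminescent read-out of surface HRP (15 min, dark) after PBS washes. Activity is normalized as 100×(sample−DMSO)/(3 μM co-corrector alone−DMSO).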

Experiment [2] addresses T1, ΔF508-CFTR. Description: CFTR cell surface levels using HRP-tagged ΔF508-CFTR expressing CFBE cells, intrinsic corrector capacity. The experiment is classed as cell-based. Also noted: % Activation: concentration or dose not given beside the values. To be noted: HRP-tagged ΔF508-CFTR expressing CFBE41o- cells, compound alone (intrinsic corrector capacity), 20 hours at 33° C.; for pEC50: read-out: EC50. The source says:
Measuring CFTR Cell Surface Levels Using HRP-Tagged ΔF508-CFTR Expressing CFBE Cells
The HRP-tagged ΔF508-CFTR cell assay measures the expression of CFTR-ΔF508 at the plasma membrane. CFTR-ΔF508 has a folding defect leading to absence of protein at the plasma membrane. This assay is used to evaluate the capacity of compounds to increase the expression of CFTR-ΔF508 at the plasma membrane. The CFTR-ΔF508 is tagged with HRP (horse radish peroxidase enzyme) within the ECL4 (Extracellular loop 4) of CFTR (Phuan, P.-W. et al. Synergy-based small-molecule screen using a human lung epithelial cell line yields ΔF508-CFTR correctors that augment VX-809 maximal efficacy. Mol. Pharmacol. 86, 42-51 (2014)). When HRP-tagged ΔF508-CFTR is present at the plasma membrane, the HRP enzyme activity can be measured. The amount of CFTR-ΔF508 that can be rescued to the plasma membrane is correlated with the amount of functional enzyme that can be measured.
There are several ways to measure the capacity of compounds to rescue CFTR-ΔF508 to the plasma membrane; either compounds are evaluated on their own and the impact on plasma membrane levels is measured or compounds are evaluated in combination with a co-corrector, i.e. a compound that rescues CFTR-ΔF508 to the plasma membrane but rescue can be enhanced by addition of compounds due to a complementary mode of action.
Activity of Compounds for their Intrinsic Corrector Capacity:
For this purpose doxycycline-inducible ΔF508-CFTR-HRP expressing CFBE4lo− cells (obtained from Gergely Lukacs, McGill University) were maintained in MEM (Gibco; 31095) supplemented with 10% fetal bovine serum (Hyclone; SV30160.03) under puromycin (3 μg/mL) and G418 selection (0.2 mg/mL). For compound testing, cells were seeded at 4000 cells/well in white 384-well plates (Greiner; 781080) in 50 μL medium containing 0.5 μg/mL doxycycline and incubated for 68 hours at 37° C., 5% CO2. On day four, […] compounds diluted in PBS were added to the plates at a final DMSO concentration of 0.1%. All compound plates contained negative controls (DMSO) and positive controls ([…] corrector, 3-[(2R,4R)-4-({[1-(2,2-difluoro-1,3-benzodioxol-5-yl)cyclopropyl]carbonyl}amino)-7-methoxy-3,4-dihydro-2H-chromen-2-yl]benzoic acid). Cell plates were incubated at 33° C., 5% CO2 for 20 hours. On day five, the cells were washed five times with phosphate-buffered saline, and HRP activity was assayed by the addition of 50 μL/well of HRP substrate (SuperSignal™ West Pico Chemiluminescent Substrate, Thermo Scientific; 34080). After incubation for 15 minutes in the dark, chemiluminescence was measured using a plate reader (EnVision®, Perkin Elmer). Raw data were normalized to percentage activity values using the equation: 100×(Sample−Negative control)/(Positive control−Negative Control).

T1 sequence (P13569 with tags, fused parts or gaps DEL508-508): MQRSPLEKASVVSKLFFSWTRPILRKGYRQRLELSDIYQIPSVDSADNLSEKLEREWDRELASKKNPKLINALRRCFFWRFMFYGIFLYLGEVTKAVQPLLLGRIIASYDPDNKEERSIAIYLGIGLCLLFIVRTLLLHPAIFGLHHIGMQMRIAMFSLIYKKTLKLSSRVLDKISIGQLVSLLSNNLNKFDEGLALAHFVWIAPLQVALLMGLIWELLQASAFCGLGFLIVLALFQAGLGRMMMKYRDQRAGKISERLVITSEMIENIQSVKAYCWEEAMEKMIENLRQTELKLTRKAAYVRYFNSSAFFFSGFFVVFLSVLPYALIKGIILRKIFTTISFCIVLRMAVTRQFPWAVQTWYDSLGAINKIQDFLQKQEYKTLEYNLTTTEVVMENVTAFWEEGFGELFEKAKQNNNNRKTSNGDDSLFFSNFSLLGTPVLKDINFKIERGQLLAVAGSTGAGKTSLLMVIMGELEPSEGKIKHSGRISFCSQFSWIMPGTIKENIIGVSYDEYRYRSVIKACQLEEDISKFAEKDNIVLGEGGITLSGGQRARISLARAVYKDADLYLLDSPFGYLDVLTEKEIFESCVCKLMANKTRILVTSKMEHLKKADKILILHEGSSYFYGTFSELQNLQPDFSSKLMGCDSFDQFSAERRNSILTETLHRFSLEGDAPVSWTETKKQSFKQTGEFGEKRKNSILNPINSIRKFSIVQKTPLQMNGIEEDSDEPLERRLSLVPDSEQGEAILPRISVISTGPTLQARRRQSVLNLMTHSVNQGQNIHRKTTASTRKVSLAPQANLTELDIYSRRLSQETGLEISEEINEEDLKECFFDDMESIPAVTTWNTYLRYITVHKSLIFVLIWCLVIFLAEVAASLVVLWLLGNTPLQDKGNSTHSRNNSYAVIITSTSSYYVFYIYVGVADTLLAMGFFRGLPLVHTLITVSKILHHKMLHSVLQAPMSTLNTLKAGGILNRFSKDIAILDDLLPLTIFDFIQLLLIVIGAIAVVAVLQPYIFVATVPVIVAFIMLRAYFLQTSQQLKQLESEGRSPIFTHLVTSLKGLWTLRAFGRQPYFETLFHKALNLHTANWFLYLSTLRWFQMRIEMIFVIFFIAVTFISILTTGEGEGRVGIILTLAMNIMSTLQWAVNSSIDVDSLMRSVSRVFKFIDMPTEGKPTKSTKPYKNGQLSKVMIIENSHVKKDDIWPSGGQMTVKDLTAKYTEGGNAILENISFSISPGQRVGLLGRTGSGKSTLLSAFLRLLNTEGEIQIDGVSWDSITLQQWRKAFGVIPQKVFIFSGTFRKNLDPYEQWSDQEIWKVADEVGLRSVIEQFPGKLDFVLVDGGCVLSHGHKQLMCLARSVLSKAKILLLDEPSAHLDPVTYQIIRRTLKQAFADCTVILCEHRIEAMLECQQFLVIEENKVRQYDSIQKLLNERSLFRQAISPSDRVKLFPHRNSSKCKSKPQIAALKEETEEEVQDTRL

`C[C@H](C1CCN(c2cc(C(=O)NS(=O)(=O)N(C)C)nc3c2c(C2CCC2)nn3-c2ccc(F)cc2)CC1)N1CCOCC1` (single isomer, unassigned) [Compound 479]: at ΔF508-CFTR [1], the “% Activation” value worked out at 524.1% and the pEC50 was 6.96. On ΔF508-CFTR [2], the “% Activation” value is 305.7% and the negative-log EC50 (pEC50) was 6.71.

On to `COCC1CCN(c2cc(C(=O)NS(=O)(=O)CCl)nc3c2c(C2CCC2)nn3-c2ccccc2)CC1` [AC07], for which, on ΔF508-CFTR [1], the “% Activation” value worked out at 466.9% and the negative-log EC50 (pEC50) is 7.12. On ΔF508-CFTR [2], the “% Activation” value is 268.5% and the pEC50 is 6.86.

Consider `Cc1nn(-c2ccccc2)c2nc(C(=O)NS(=O)(=O)c3ccccc3)cc(-c3ccc(N4CCOCC4)cc3)c12` [Compound 2, N-(benzenesulfonyl)-3-methyl-4-[4-(morpholin-4-yl)phenyl]-1-phenyl-1H-pyrazolo[3,4-b]pyridine-6-carboxamide], for which, on ΔF508-CFTR [1], the “% Activation” value is given as 431.5% and the negative logarithm of the EC50 (pEC50) was 5.95. On ΔF508-CFTR [2], the “% Activation” value is listed as 226.75% and the negative logarithm of the EC50 (pEC50) is 5.73.

`Cc1nn(-c2ccccc2)c2nc(C(=O)NS(=O)(=O)C3CC3)cc(-c3ccc(N4CCOCC4)cc3)c12` [Compound 4, N-(cyclopropanesulfonyl)-3-methyl-4-[4-(morpholin-4-yl)phenyl]-1-phenyl-1H-pyrazolo[3,4-b]pyridine-6-carboxamide]: the “% Activation” value on ΔF508-CFTR [1] is given as 405.8%; at ΔF508-CFTR [2] it was 246.7%. Also, the figures for the negative logarithm of the EC50 (pEC50) on ΔF508-CFTR [1] and at ΔF508-CFTR [2] were 6.53 and 6.08, respectively.

As for `Cc1nn(-c2cccc(OC(F)(F)F)c2)c2nc(C(=O)NS(C)(=O)=O)cc(-c3ccc(N4CCOCC4)cc3)c12` [Compound 6, N-(methanesulfonyl)-3-methyl-4-[4-(morpholin-4-yl)phenyl]-1-[3-(trifluoromethoxy)phenyl]-1H-pyrazolo[3,4-b]pyridine-6-carboxamide], on ΔF508-CFTR [1], the “% Activation” value is reported as 387.1% and the pEC50 was 6.29. Further, on ΔF508-CFTR [2], the “% Activation” value stood at 232.1% and the pEC50 was 6.09.

`CC(C)c1nn(-c2ccccc2)c2nc(C(=O)NS(C)(=O)=O)cc(-c3ccc(N(C)C)cc3)c12` [Compound 7, 4-[4-(dimethylamino)phenyl]-N-(methanesulfonyl)-1-phenyl-3-(propan-2-yl)-1H-pyrazolo[3,4-b]pyridine-6-carboxamide]: on ΔF508-CFTR [1], the “% Activation” value was 420.63% and the pEC50 is 6.26. On ΔF508-CFTR [2], the “% Activation” value stood at 245% and the pEC50 is 6.20.

On to `Cc1nn(-c2cccc(C(F)(F)F)c2)c2nc(C(=O)NS(C)(=O)=O)cc(-c3ccc(N4CCOCC4)cc3)c12` [Compound 8, N-(methanesulfonyl)-3-methyl-4-[4-(morpholin-4-yl)phenyl]-1-[3-(trifluoromethyl)phenyl]-1H-pyrazolo[3,4-b]pyridine-6-carboxamide], for which, on ΔF508-CFTR [1], the “% Activation” value turned out to be 441.85% and the negative logarithm of the EC50 (pEC50) is 6.07. In addition, on ΔF508-CFTR [2], the “% Activation” value is on record as 270.6% and the negative-log EC50 (pEC50) is 6.05.

For `CC(C)c1nn(C2CCCCC2)c2nc(C(=O)NS(C)(=O)=O)cc(-c3cnc(N(C)C)nc3)c12` [Compound 9, 1-cyclohexyl-4-[2-(dimethylamino)pyrimidin-5-yl]-N-(methanesulfonyl)-3-(propan-2-yl)-1H-pyrazolo[3,4-b]pyridine-6-carboxamide], at ΔF508-CFTR [1], the “% Activation” value came to 335% and the pEC50 was 6.30. In addition, on ΔF508-CFTR [2], the “% Activation” value was 143.05% and the pEC50 is 6.10.

For the molecule `CCOC(=O)N1CCN(c2cc(C(=O)NS(=O)(=O)CCOC)nc3c2c(C2CCC2)nn3-c2ccc(F)cc2)CC1` [Compound 677, ethyl 4-{3-cyclobutyl-1-(4-fluorophenyl)-6-[(2-methoxyethanesulfonyl)carbamoyl]-1H-pyrazolo[3,4-b]pyridin-4-yl}piperazine-1-carboxylate], at ΔF508-CFTR [2], the “% Activation” value was 458.5% and the pEC50 was 6.77.

Turning to `CCOC(=O)N1CCN(c2cc(C(=O)NS(=O)(=O)N3CCOCC3)nc3c2c(C2CCC2)nn3-c2ccc(F)cc2)CC1` [Compound 678, ethyl 4-{3-cyclobutyl-1-(4-fluorophenyl)-6-[(morpholine-4-sulfonyl)carbamoyl]-1H-pyrazolo[3,4-b]pyridin-4-yl}piperazine-1-carboxylate], on ΔF508-CFTR [2], the “% Activation” value is 345.1% and the pEC50 was 6.66.

Consider `CCOC(=O)N1CCN(c2cc(C(=O)NS(C)(=O)=O)nc3c2c(C2CCC2)nn3-c2ccc(F)cc2)CC1` [Compound 679, ethyl 4-{3-cyclobutyl-1-(4-fluorophenyl)-6-[(methanesulfonyl)carbamoyl]-1H-pyrazolo[3,4-b]pyridin-4-yl}piperazine-1-carboxylate], for which, at ΔF508-CFTR [2], the “% Activation” value was found to be 476.9% and the pEC50 is 6.88.

In the case of `CCOC(=O)N1CCN(c2cc(C(=O)NS(=O)(=O)NC)nc3c2c(C2CCC2)nn3-c2ccc(F)cc2)CC1` [Compound 680, ethyl 4-{3-cyclobutyl-1-(4-fluorophenyl)-6-[(methylsulfamoyl)carbamoyl]-1H-pyrazolo[3,4-b]pyridin-4-yl}piperazine-1-carboxylate], on ΔF508-CFTR [2], the “% Activation” value is given as 351.2% and the negative-log EC50 (pEC50) was 6.47.

As for `CC(C)COC(=O)N1CCN(c2cc(C(=O)NS(C)(=O)=O)nc3c2c(C2CCC2)nn3-c2ccc(F)cc2)CC1` [Compound 681, 2-methylpropyl 4-{3-cyclobutyl-1-(4-fluorophenyl)-6-[(methanesulfonyl)carbamoyl]-1H-pyrazolo[3,4-b]pyridin-4-yl}piperazine-1-carboxylate], on ΔF508-CFTR [2], the “% Activation” value was 366.2% and the pEC50 is 6.76.

As for `CC(C)COC(=O)N1CCN(c2cc(C(=O)NS(=O)(=O)N3CCOCC3)nc3c2c(C2CCC2)nn3-c2ccc(F)cc2)CC1` [Compound 682, 2-methylpropyl 4-{3-cyclobutyl-1-(4-fluorophenyl)-6-[(morpholine-4-sulfonyl)carbamoyl]-1H-pyrazolo[3,4-b]pyridin-4-yl}piperazine-1-carboxylate], at ΔF508-CFTR [2], the “% Activation” value turned out to be 260.8% and the negative-log EC50 (pEC50) is 6.53.

As for `COCCS(=O)(=O)NC(=O)c1cc(N2CCN(C(=O)OCC(C)C)CC2)c2c(C3CCC3)nn(-c3ccc(F)cc3)c2n1` [Compound 683, 2-methylpropyl 4-{3-cyclobutyl-1-(4-fluorophenyl)-6-[(2-methoxyethanesulfonyl)carbamoyl]-1H-pyrazolo[3,4-b]pyridin-4-yl}piperazine-1-carboxylate], on ΔF508-CFTR [2], the “% Activation” value is 354.9% and the negative logarithm of the EC50 (pEC50) is 6.60.

`CNS(=O)(=O)NC(=O)c1cc(N2CCN(C(=O)OCC(C)C)CC2)c2c(C3CCC3)nn(-c3ccc(F)cc3)c2n1` [Compound 684, 2-methylpropyl 4-{3-cyclobutyl-1-(4-fluorophenyl)-6-[(methylsulfamoyl)carbamoyl]-1H-pyrazolo[3,4-b]pyridin-4-yl}piperazine-1-carboxylate]: on ΔF508-CFTR [2], the “% Activation” value stood at 356.9% and the pEC50 is 6.94.

As to `CN1CCC2(CC1)CCN(c1cc(C(=O)NS(=O)(=O)N3CCOCC3)nc3c1c(C1CCC1)nn3-c1ccc(F)cc1)CC2` [Compound 685, 3-cyclobutyl-1-(4-fluorophenyl)-4-(9-methyl-3,9-diazaspiro[5.5]undecan-3-yl)-N-(morpholine-4-sulfonyl)-1H-pyrazolo[3,4-b]pyridine-6-carboxamide], on ΔF508-CFTR [2], the “% Activation” value is reported as 144.3% and the negative-log EC50 (pEC50) was 6.11.
